Activity calls are given as the source filed them. No stated cut-off is given here; in the data, actives have a measured IC50 and inactives only a lower limit.

For the assay, the target named is Envelope glycoprotein gp160 (Human immunodeficiency virus 1, UniProt Q6QLK5). The experiment in a line: inhibitors of HIV fusion peptide binding, primary screen, biochemical, uHTS, fluorescence dequenching (AID 1986).
Sequence of Envelope glycoprotein gp160 (Q6QLK5 whole entry, the tested form may be a part): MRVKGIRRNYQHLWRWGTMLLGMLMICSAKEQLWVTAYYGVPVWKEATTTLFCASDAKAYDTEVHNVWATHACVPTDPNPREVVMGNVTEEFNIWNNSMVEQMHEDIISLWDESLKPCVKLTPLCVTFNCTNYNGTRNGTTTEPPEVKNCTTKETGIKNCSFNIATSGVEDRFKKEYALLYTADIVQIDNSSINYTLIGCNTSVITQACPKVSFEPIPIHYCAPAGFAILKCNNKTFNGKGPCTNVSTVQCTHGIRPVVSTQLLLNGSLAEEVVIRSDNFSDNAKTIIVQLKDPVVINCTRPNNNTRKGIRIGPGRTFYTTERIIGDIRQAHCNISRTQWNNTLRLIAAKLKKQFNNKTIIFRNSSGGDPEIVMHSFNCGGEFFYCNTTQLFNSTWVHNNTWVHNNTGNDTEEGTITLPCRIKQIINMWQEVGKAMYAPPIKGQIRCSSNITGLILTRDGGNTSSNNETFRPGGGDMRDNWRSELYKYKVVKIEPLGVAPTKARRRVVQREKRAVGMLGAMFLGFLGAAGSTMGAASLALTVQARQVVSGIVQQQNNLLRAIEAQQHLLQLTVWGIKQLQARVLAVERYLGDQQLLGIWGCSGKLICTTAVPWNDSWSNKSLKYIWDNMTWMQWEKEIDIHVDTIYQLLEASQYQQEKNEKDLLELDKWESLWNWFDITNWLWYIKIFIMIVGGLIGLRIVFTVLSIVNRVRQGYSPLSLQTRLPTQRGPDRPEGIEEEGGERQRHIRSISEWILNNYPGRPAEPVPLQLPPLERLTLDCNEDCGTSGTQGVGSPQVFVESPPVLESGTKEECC
Regarding `O=S(=O)(Nc1nc2ccccc2nc1Nc1cccc(S(=O)(=O)N2CCCCC2)c1)c1ccccc1`, the 50% inhibitory concentration (IC50) (in general, the point on the concentration scale where inhibition reaches its midpoint) is 13.3 µM (active). The result for `Cc1cc(/C=C2/C(=N)N3C(=NC2=O)SN=C3S(C)(=O)=O)c(C)n1-c1ccccc1` reads 19.1 µM (active). The result for `COc1ccc(C(=O)/C=C/c2ccc(OCc3ccccc3)cc2)cc1CSCC(=O)O` reads 25.7 µM (active).

Source of the values: ChEMBL document CHEMBL1201862, “PubChem BioAssay data set” (2004).
